Source: the supplement of paper PMC11997997

Experiments:
[1] = test system: murine bone marrow-derived macrophages; assay: area under cytotoxicity dose-response curve (AUC (% cytotoxicity x dose, relative)); higher = more cytotoxic; details: duration: 6 days; dose range: 0.13-80 uM, 8 points
Summary of the method: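 Using opaque 384-well plates, primary murine bone marrow-derived macrophages were treated for 6 days at 37 °C in 5% CO2 with an 8-point, 2.5-fold dilution series spanning final concentrations of 80–0.13 μM. After CellTiter-Glo (Promega) luminescence readout of viability, percent cytotoxicity was normalised to vehicle and positive control wells. The reported value is the area under the dose–response curve for cytotoxicity, derived in GraphPad Prism version 10.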

[2] = test system: Mycobacterium tuberculosis CDC1551 (intracellular, in murine BMDM); assay: area under intracellular growth-inhibition dose-response curve (AUC (% inhibition x dose, relative)); higher = more potent; details: duration: 6 days; dose range: 0.13-80 uM, 8 points
Summary of the method: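 Primary murine bone marrow-derived macrophages in 384-well opaque plates were infected 24 h after seeding with luciferase-expressing M. tuberculosis CDC1551 at multiplicity of infection 1 for 1 h. They were then treated with an 8-dose, 2.5-fold series (final 80–0.13 μM) for 6 days. Growth was read by Bright-Glo luciferin assay and normalised to a reference drug control and the lowest-concentration wells. The value is the area under the growth-inhibition dose–response curve, calculated in GraphPad Prism.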

C/C(=N\NC(=O)c1ccncc1)C12CC3CC(CC(C3)C1)C2
area under cytotoxicity dose-response curve [1]: 97.9
area under intracellular growth-inhibition dose-response curve [2]: 239

CCOc1ccc(-n2cc(-c3ccc(OC)c(OC)c3)nc2S)cc1
area under cytotoxicity dose-response curve [1]: 81.6
area under intracellular growth-inhibition dose-response curve [2]: 210

O=C(CCC1CCCCC1)NCc1cccs1
area under cytotoxicity dose-response curve [1]: 42.9
area under intracellular growth-inhibition dose-response curve [2]: 187

CCC(=O)NC(=S)Nc1ccc(NC(=O)COc2ccccc2)cc1
area under cytotoxicity dose-response curve [1]: 69.1
area under intracellular growth-inhibition dose-response curve [2]: 201

[O-][n+]1onc2c3cc(-c4ccccc4)[nH]c3ccc21
area under cytotoxicity dose-response curve [1]: 40.6
area under intracellular growth-inhibition dose-response curve [2]: 74.3

CCOC(=O)C(CC)(CC)/C(C)=N/NC(=O)CC#N
area under cytotoxicity dose-response curve [1]: 20
area under intracellular growth-inhibition dose-response curve [2]: 19.5

O=C(Nc1ccc([N+](=O)[O-])cc1Cl)c1cc(Cl)ccc1O
area under cytotoxicity dose-response curve [1]: 108
area under intracellular growth-inhibition dose-response curve [2]: 151

CCCCCNC(=O)CCc1ccccc1
area under cytotoxicity dose-response curve [1]: < 0
area under intracellular growth-inhibition dose-response curve [2]: 130

O=C(NC(=S)Nc1ccc(NC(=O)c2cccs2)cc1)c1ccco1
area under cytotoxicity dose-response curve [1]: < 0
area under intracellular growth-inhibition dose-response curve [2]: 268

O=C(Nc1ccc(C(=O)Oc2ccccc2)c(O)c1)c1ccco1
area under cytotoxicity dose-response curve [1]: 4.02
area under intracellular growth-inhibition dose-response curve [2]: 223

CC(=O)c1cc(NC(=O)c2ccc(C)cc2)c(=O)oc1/C=C/N(C)C
area under cytotoxicity dose-response curve [1]: 37.1
area under intracellular growth-inhibition dose-response curve [2]: 115

O=C(NCC1CC1)c1cc([N+](=O)[O-])cc([N+](=O)[O-])c1
area under cytotoxicity dose-response curve [1]: 36.7
area under intracellular growth-inhibition dose-response curve [2]: 202

O=C(Nc1ccc(F)cc1)NC1CCCCCCC1
area under cytotoxicity dose-response curve [1]: 144
area under intracellular growth-inhibition dose-response curve [2]: 182

O=C(CCN1C(=O)/C(=C/c2cccs2)SC1=S)Nc1ccc(C(=O)O)c(O)c1
area under cytotoxicity dose-response curve [1]: 68.2
area under intracellular growth-inhibition dose-response curve [2]: 189

O=C(N/N=C/c1ccc(O)c([N+](=O)[O-])c1)c1ccncc1
area under cytotoxicity dose-response curve [1]: < 0
area under intracellular growth-inhibition dose-response curve [2]: 256

O=C(NNC(=O)c1cc2ccccc2o1)c1ccncc1
area under cytotoxicity dose-response curve [1]: 11.1
area under intracellular growth-inhibition dose-response curve [2]: 135

COc1ccc(OC)c2nc3c(cc12)CCC3
area under cytotoxicity dose-response curve [1]: 23.1
area under intracellular growth-inhibition dose-response curve [2]: 211

N=C(NCCCCCCNC(=N)NC(=N)Nc1ccc(Cl)cc1)NC(=N)Nc1ccc(Cl)cc1
area under cytotoxicity dose-response curve [1]: 165
area under intracellular growth-inhibition dose-response curve [2]: 89.5

CC(NC(=O)c1ccc(F)cc1)c1ccc(F)cc1 (centres undefined)
area under cytotoxicity dose-response curve [1]: 31.2
area under intracellular growth-inhibition dose-response curve [2]: 230

Cc1ccc(-c2cc(-c3ccc(C)cc3)[n+](-c3ccccc3)c(-c3ccc(C)cc3)c2)cc1.[O-][Cl+3]([O-])([O-])[O-]
area under cytotoxicity dose-response curve [1]: 85.5
area under intracellular growth-inhibition dose-response curve [2]: 268

CCOc1ccc2ccccc2c1/C=N/NC(=O)c1ccncc1
area under cytotoxicity dose-response curve [1]: < 0
area under intracellular growth-inhibition dose-response curve [2]: 270

CC1CCN(C(=O)COc2ccccc2F)CC1
area under cytotoxicity dose-response curve [1]: 50.5
area under intracellular growth-inhibition dose-response curve [2]: 214

Cc1ccccc1C(=O)N1CCN(c2ccc(NC(=S)NC(=O)c3ccco3)cc2)CC1
area under cytotoxicity dose-response curve [1]: 63.6
area under intracellular growth-inhibition dose-response curve [2]: 185

CNC[C@H](Cc1ccccc1)NC[C@@H](Cc1cccc2ccccc12)NCCc1ccc(C)cc1
area under cytotoxicity dose-response curve [1]: 108
area under intracellular growth-inhibition dose-response curve [2]: 53.8

CCCc1nnc(NC(=S)Nc2ccccc2)s1
area under cytotoxicity dose-response curve [1]: < 0
area under intracellular growth-inhibition dose-response curve [2]: 213

O=C(NCc1cccs1)c1ccc(Br)o1
area under cytotoxicity dose-response curve [1]: < 0
area under intracellular growth-inhibition dose-response curve [2]: 191

Cc1cc(/C=N/NC(N)=S)c(C)n1-c1cccc(Cl)c1
area under cytotoxicity dose-response curve [1]: 34
area under intracellular growth-inhibition dose-response curve [2]: 190
